Eight compounds from patent US5171837A, “Peptide capable of binding interleukin 6 and an adsorbent comprising the peptide immobilized on a carrier” (Kuraray Co., Ltd., priority 1989, dated 1992) can be followed below.

Structures are written as SMILES. Non-standard residues stand in square brackets, D forms with d. Residues, ends and D or L forms follow the SMILES beside them. *: point of attachment. X1 = NCCCCCCCCCCCCCCCCCC(=O)*; 12Ado = NCCCCCCCCCCCC(=O)O

The target in this assay is T1, IL-6 (Homo sapiens, UniProt P05231).
T1 construct: purchased Genzyme Corp
T1 sequence (P05231 30-212): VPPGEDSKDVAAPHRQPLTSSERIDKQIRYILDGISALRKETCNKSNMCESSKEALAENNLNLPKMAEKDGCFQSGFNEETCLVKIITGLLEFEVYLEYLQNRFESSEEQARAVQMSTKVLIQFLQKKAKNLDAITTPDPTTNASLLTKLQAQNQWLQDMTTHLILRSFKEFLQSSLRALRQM
The experiment in a line: Activity for inhibition of binding of IL-6 to receptor by peptide (IL-6 receptor expression cells, FITC labeled anti-IL-6 antibody). As to conditions: 5 μg of the peptide, 50 ng of IL-6, 10^5 IL-6 receptor expression cells, 4° C for one hour. On the procedure:
A human lymphocyte fraction was obtained from human peripheral blood with Ficoll-Paque (manufactured by Pharmacia-LKB). The fraction was reacted with a cultured supernatant of Epstein-Barr Virus producing cell strain B958 to transform the human lymphocytes to obtain IL-6 receptor expression cells.
1 mg of anti-human IL-6 antibody [Rabbit Anti-human Interleukin-6, manufactured by Genzyme Corp.] was dissolved in a 0.05M carbonate buffer solution (pH: 9.5) and to the resulting solution was added 10 μg of FITC [Fluorescein isothiocyanate, manufactured by Sigma Corp.]. The mixture was stirred at 4° C. overnight. The resulting solution was passed through PD-10 column (manufactured by Pharmacia-LKB) to obtain FITC labeled anti-IL-6 antibody as a firstly eluted fraction.
10^5 IL-6 receptor expression cells were suspended in 0.5 % BSA (bovine serum albumin, manufactured by Sigma Corp.)-PBS (a phosphate buffer solution containing 0.15 M sodium chloride, pH 7.4) and to the resulting suspension were added 50 ng of IL-6 (Human recombinant interleukin-6, manufactured by Genzyme Corp.) and 5 μg of the peptide obtained in any one of Examples 1 to 96. The suspension was allowed to stand at 4° C for one hour. Then, after washing the cells centrifugally with 0.5% BSA-PBS three times (1200 rpm, 5 min.), 1 μg of FITC labeled anti-IL-6 antibody was added and the mixture was allowed to stand at 4° C. for 30 minutes. After washing with 0.5% BSA-PBS three times, the intensity of fluorescence of the cells was determined. The binding inhibition activity of the peptide of each Example was evaluated, by taking the value obtained without addition of the peptide as a control and taking the value- obtained without addition of IL-6 as a blank, according to the following formula: [formula]
As for `CC(C)C[C@H](NC(=O)[C@@H](NC(=O)[C@@H](NC(=O)[C@H](CO)NC(=O)[C@H](CC(=O)O)NC(=O)CNC(=O)[C@@H]1CCCN1C(=O)[C@H](CC(C)C)NC(=O)[C@H](CO)NC(=O)[C@@H](NC(=O)CCCCCCCCCCCN)[C@@H](C)O)C(C)C)[C@@H](C)O)C(=O)N[C@H](C(=O)N[C@@H](CS)C(=O)N1CCC[C@H]1C(=O)NCC(=O)N[C@H](C(=O)N[C@@H](CCC(=O)O)C(=O)N1CCC[C@H]1C(=O)N[C@@H](CCC(=O)O)C(=O)N[C@@H](CC(=O)O)C(=O)N[C@@H](CCC(=O)O)C(=O)N[C@@H](CCC(=O)O)C(=O)N[C@@H](CCC(=O)O)C(=O)N[C@@H](CCC(=O)O)C(=O)N[C@@H](CCC(=O)O)C(=O)O)C(C)C)[C@@H](C)O` [Example 3] (H-[12Ado]TSLPGDSVTLTCPGVEPEDEEEEE-OH), the “Binding inhibition activity (%)” value is reported as 40%. Take `CC(C)C[C@H](NC(=O)[C@@H](NC(=O)[C@@H](NC(=O)[C@H](CO)NC(=O)[C@H](CC(=O)O)NC(=O)CNC(=O)[C@@H]1CCCN1C(=O)[C@H](CC(C)C)NC(=O)[C@H](CO)NC(=O)[C@@H](NC(=O)CCCCCCCCCCCCCCCCCN)[C@@H](C)O)C(C)C)[C@@H](C)O)C(=O)N[C@H](C(=O)N[C@@H](CS)C(=O)N1CCC[C@H]1C(=O)NCC(=O)N[C@H](C(=O)N[C@@H](CCC(=O)O)C(=O)N1CCC[C@H]1C(=O)N[C@@H](CCC(=O)O)C(=O)N[C@@H](CC(=O)O)C(=O)NCC(=O)O)C(C)C)[C@@H](C)O` [Example 4] (X1-TSLPGDSVTLTCPGVEPEDG-OH): the “Binding inhibition activity (%)” value amounted to 42%. As for `CC(C)C[C@H](NC(=O)[C@H](Cc1c[nH]cn1)NC(=O)[C@@H](NC(=O)[C@@H](NC(=O)CNC(=O)CCCCCCCCCCCN)[C@@H](C)O)C(C)C)C(=O)N[C@@H](CC(C)C)C(=O)N[C@H](C(=O)N[C@@H](CC(=O)O)C(=O)N[C@H](C(=O)N1CCC[C@H]1C(=O)N1CCC[C@H]1C(=O)N[C@@H](CCC(=O)O)C(=O)N[C@@H](CCC(=O)O)C(=O)N1CCC[C@H]1C(=O)N[C@@H](CCC(N)=O)C(=O)N[C@@H](CC(C)C)C(=O)N[C@@H](CO)C(=O)N[C@@H](CS)C(=O)N[C@@H](Cc1ccccc1)C(=O)N[C@@H](CCCNC(=N)N)C(=O)N[C@@H](CCCCN)C(=O)N[C@@H](CCC(=O)O)C(=O)N[C@@H](CCC(=O)O)C(=O)N[C@@H](CCC(=O)O)C(=O)N[C@@H](CCC(=O)O)C(=O)N[C@@H](CCC(=O)O)C(=O)O)C(C)C)C(C)C` [Example 11] (H-[12Ado]GTVHLLVDVPPEEPQLSCFRKEEEEE-OH), the “Binding inhibition activity (%)” value stood at 34%. Consider `CC(C)C[C@H](NC(=O)[C@H](Cc1c[nH]cn1)NC(=O)[C@@H](NC(=O)[C@@H](NC(=O)CNC(=O)CCCCCCCCCCCCCCCCCN)[C@@H](C)O)C(C)C)C(=O)N[C@@H](CC(C)C)C(=O)N[C@H](C(=O)N[C@@H](CC(=O)O)C(=O)N[C@H](C(=O)N1CCC[C@H]1C(=O)N1CCC[C@H]1C(=O)N[C@@H](CCC(=O)O)C(=O)N[C@@H](CCC(=O)O)C(=O)N1CCC[C@H]1C(=O)N[C@@H](CCC(N)=O)C(=O)N[C@@H](CC(C)C)C(=O)N[C@@H](CO)C(=O)N[C@@H](CS)C(=O)N[C@@H](Cc1ccccc1)C(=O)N[C@@H](CCCNC(=N)N)C(=O)N[C@@H](CCCCN)C(=O)NCC(=O)O)C(C)C)C(C)C` [Example 12] (X1-GTVHLLVDVPPEEPQLSCFRKG-OH), for which the “Binding inhibition activity (%)” value is given as 35%. For `C[C@H](NC(=O)[C@@H]1CCCN1C(=O)[C@H](CO)NC(=O)[C@H](CC(N)=O)NC(=O)[C@H](CCC(N)=O)NC(=O)[C@H](Cc1ccccc1)NC(=O)[C@H](CCCCN)NC(=O)[C@H](CCCNC(=N)N)NC(=O)CCCCCCCCCCCN)C(=O)N[C@@H](CCC(=O)O)C(=O)N[C@@H](CC(=O)O)C(=O)N[C@@H](Cc1ccccc1)C(=O)N[C@@H](CCC(N)=O)C(=O)N[C@@H](CCC(=O)O)C(=O)N1CCC[C@H]1C(=O)N[C@@H](CS)C(=O)N[C@@H](CCC(N)=O)C(=O)N[C@@H](Cc1ccc(O)cc1)C(=O)N[C@@H](CO)C(=O)N[C@@H](CCC(N)=O)C(=O)N[C@@H](CCC(=O)O)C(=O)N[C@@H](CO)C(=O)N[C@@H](CCC(=O)O)C(=O)N[C@@H](CCC(=O)O)C(=O)N[C@@H](CCC(=O)O)C(=O)N[C@@H](CCC(=O)O)C(=O)N[C@@H](CCC(=O)O)C(=O)O` [Example 19] (H-[12Ado]RKFQNSPAEDFQEPCQYSQESEEEEE-OH), the “Binding inhibition activity (%)” value turned out to be 62%.

Turning to `C[C@H](NC(=O)[C@@H]1CCCN1C(=O)[C@H](CO)NC(=O)[C@H](CC(N)=O)NC(=O)[C@H](CCC(N)=O)NC(=O)[C@H](Cc1ccccc1)NC(=O)[C@H](CCCCN)NC(=O)[C@H](CCCNC(=N)N)NC(=O)CCCCCCCCCCCCCCCCCN)C(=O)N[C@@H](CCC(=O)O)C(=O)N[C@@H](CC(=O)O)C(=O)N[C@@H](Cc1ccccc1)C(=O)N[C@@H](CCC(N)=O)C(=O)N[C@@H](CCC(=O)O)C(=O)N1CCC[C@H]1C(=O)N[C@@H](CS)C(=O)N[C@@H](CCC(N)=O)C(=O)N[C@@H](Cc1ccc(O)cc1)C(=O)N[C@@H](CO)C(=O)N[C@@H](CCC(N)=O)C(=O)N[C@@H](CCC(=O)O)C(=O)N[C@@H](CO)C(=O)NCC(=O)O` [Example 20] (X1-RKFQNSPAEDFQEPCQYSQESG-OH), the “Binding inhibition activity (%)” value amounted to 65%. Regarding `CC[C@H](C)[C@H](NC(=O)[C@H](CC(N)=O)NC(=O)[C@H](CC(=O)O)NC(=O)[C@H](CC(=O)O)NC(=O)[C@H](CC(=O)O)NC(=O)[C@H](CCCCN)NC(=O)[C@H](CC(N)=O)NC(=O)[C@@H](NC(=O)[C@@H](NC(=O)[C@H](CC(C)C)NC(=O)[C@H](C)NC(=O)[C@H](CCC(N)=O)NC(=O)CCCCCCCCCCCN)[C@@H](C)O)[C@@H](C)O)C(=O)N[C@@H](CC(C)C)C(=O)N[C@@H](Cc1ccccc1)C(=O)N[C@@H](CCCNC(=N)N)C(=O)N[C@@H](CC(=O)O)C(=O)N[C@@H](CO)C(=O)N[C@@H](C)C(=O)N[C@@H](CCC(=O)O)C(=O)N[C@@H](CCC(=O)O)C(=O)N[C@@H](CCC(=O)O)C(=O)N[C@@H](CCC(=O)O)C(=O)N[C@@H](CCC(=O)O)C(=O)O` [Example 27] (H-[12Ado]QALTTNKDDDNILFRDSAEEEEE-OH), the “Binding inhibition activity (%)” value is 48%. Regarding `CC[C@H](C)[C@H](NC(=O)[C@H](CC(N)=O)NC(=O)[C@H](CC(=O)O)NC(=O)[C@H](CC(=O)O)NC(=O)[C@H](CC(=O)O)NC(=O)[C@H](CCCCN)NC(=O)[C@H](CC(N)=O)NC(=O)[C@@H](NC(=O)[C@@H](NC(=O)[C@H](CC(C)C)NC(=O)[C@H](C)NC(=O)[C@H](CCC(N)=O)NC(=O)CCCCCCCCCCCCCCCCCN)[C@@H](C)O)[C@@H](C)O)C(=O)N[C@@H](CC(C)C)C(=O)N[C@@H](Cc1ccccc1)C(=O)N[C@@H](CCCNC(=N)N)C(=O)N[C@@H](CC(=O)O)C(=O)N[C@@H](CO)C(=O)N[C@@H](C)C(=O)NCC(=O)O` [Example 28] (X1-QALTTNKDDDNILFRDSAG-OH), the “Binding inhibition activity (%)” value was 47%.
